One assay relates to macrophages (RAW 264.7). Nature of the assay: cells. The format is cell-based, murine. Conditions: Mus musculus, RAW264.7; RAW 264.7 infected macrophages, high-content assay, 72 h; read-out: Macrophage IC50.
Assay [1] has as its system intracellular M. tuberculosis. Nature of the assay: microbe, parasite or virus in culture. The assay is classed as cell-based, Mycobacterium tuberculosis.
In assay [2] the test system is extracellular M. tuberculosis. Description: microbe, parasite or virus in culture. The assay is classed as cell-based. The settings on record: Mycobacterium tuberculosis.
For the next assay, the system named is HepG2 cells. Nature of the assay: cells. The assay is classed as cell-based, human. The settings on record: Homo sapiens, HepG2; 72 h, CellTiter-Glo.
Assay [3] deals with extracellular M. tuberculosis. Nature of the assay: microbe, parasite or virus in culture. The format is cell-based, Mycobacterium tuberculosis.
In assay [4] the test system is replicating M. tuberculosis. Nature of the assay: Kill kinetics against replicating M. tuberculosis. The format is cell-based, Mycobacterium tuberculosis. The settings on record: up to 100 μM, over 21 days, aerobic culture in 7H9-Tw-OADC.

Read-outs that look alike come from different tables or passages of the source.

In the case of `CCOc1ccc(NC(=S)Nc2ccc(OC)cc2)cc1` [Compound 14], the IC50 (usually the concentration needed to halve the response being measured) was above 100 µM with macrophages (RAW 264.7); 7.2 µM in assay [2] (120 h, read-out: Extracellular TB IC50); 7.2 µM in assay [2] (glucose as carbon source, read-out: Glucose IC50); above 100 µM in the assay on HepG2 cells; 15 µM in assay [3] (Mycobacterium tuberculosis, 168 h, read-out: Cholesterol IC50). In assay [1] (cytotoxicity IC50 over intracellular M. tuberculosis IC50), the “selectivity index (SI)” value was above 588. For the same compound, the “fold difference between extracellular and intracellular IC50” value in assay [1] (extracellular versus intracellular M. tuberculosis) is above 40 fold. Besides, in assay [3] (glucose IC50 versus cholesterol IC50), the Fold-change worked out at 0.5. For the same compound, the “culture viability (CFU) in kill kinetics” value in assay [4] was “small decrease in viable bacteria at day 21 at the highest concentration”.

The record behind these values is paper PMC9241686 (Microbiology Spectrum, 2022).
